Measured values taken from patent US4039550A, “Lower-alkyl (5-substituted-2-pyridyl)carbamodithioates” (Sterling Drug Inc., priority 1976, dated 1977).

Tests used:
bacteria = conditions: Foye et al., J. Am. Pharm. Assoc. 47, 556-558 (1958); cited from earlier work
S. obvelata = assay: Anthelmintic screening in mice against S. obvelata (pinworm), four-day medication; assay type: in vivo, Syphacia obvelata in Swiss mice; conditions: 200 mg./kg./day p.o. for four days
Excerpt: The same test procedures described above were used to assess the effectiveness of the compounds against S. obvelata, a naturally occurring pinworm infection in Swiss mice. Efficacy was judged by the percent of mice cleared of the infection compared to non-medicated control mice.
(§1) Data obtained in anthelmintic screening tests against the helminth infections, N. dubius (a), H. nana (b) and S. obvelata (c), are given in the table below. Results are expressed in terms of the percent of animals cleared at a standard dose of 200 mg./kg./day (p.o.) for four days; as percent of animals cleared at a single dose (S.D.) of 25 mg./kg.; or as an ED50 on single dose administration (ED50) against N. dubius.

N. dubius [1] = assay: Anthelmintic screening in mice against N. dubius (roundworm), four-day medication; assay type: in vivo, Nematospiroides dubius in Swiss mice; conditions: 200 mg./kg./day p.o. for four days
Description: (§2) Anthelmintic activity was determined in mice against one species of roundworm (Nematospiroides dubius), one species of pinworm (Syphacia obvelata) and one species of tapeworm (Hymenolepis nana). The various test procedures used are described as follows: Swiss mice weighing approximately 20 grams were infected with approximately 20 larvae of N. dubius which were administered in 10% gelatin via stomach tube. For screening purposes, compounds, made up in 10% galatin, were administered via stomach tube in equally divided daily doses for four consecutive days beginning fourteen days after infection. Four days after the final medication, the animals were sacrificed and examined for the presence of worms. Efficacy against N. dubius was judged on the basis of percent worm reduction compared to control non-medicated mice. In addition, for the purpose of evaluation, the compounds were administered orally to a series of animals at graded doses, each animal receiving a single dose, and the results against N. dubius expressed in terms of an Effective Dose50 (ED50), the ED50 representing the dose necessary to remove 50% of the worm burden.
as §1

N. dubius [2] = assay: Anthelmintic single-dose test in mice against N. dubius (S.D. and ED50); assay type: in vivo, Nematospiroides dubius in Swiss mice; conditions: for ED50: Heligmosomoides polygyrus, against N. dubius, single oral dose, dose necessary to remove 50% of the worm burden, read-out: ED50 on single dose administration
Description: as §2, §1

H. nana = assay: Anthelmintic screening in mice against H. nana (tapeworm), four-day medication; assay type: in vivo, Hymenolepis nana in Swiss mice; conditions: 200 mg./kg./day p.o. for four days
Description: In tests against the tapeworm, H. nana, Swiss mice weighing approximately 20 grams were infected with approximately 12,000 ova of H. nana administered in 10% gelatin via stomach tube. The test compounds, made up in 10% gelatin, were administered via stomach tube in equally divided doses daily for four consecutive days beginning twelve days after infection. Four days after the final medication, the animals were sacrificed and examined for the presence of worms. Efficacy was judged by the percent of mice cleared compared to non-medicated control mice.
as §1

Row | Structure (SMILES) | anti-bacterial activity (bacteria) | % Cleared/200 mg./kg. (c) (S. obvelata) [%] | % Cleared/200 mg./kg. (a) (N. dubius [1]) [%] | S.D. (percent of animals cleared at a single dose) (N. dubius [2]; single dose of 25 mg./kg., mice) [%] | % Cleared/200 mg./kg. (b) (H. nana) [%] | ED50 (N. dubius [2]) [mg/kg]
1 | CCSC(=S)Nc1ccccn1 [Ethyl (2-pyridyl)-carbamodithioate] | active as an anti-bacterial agent | – | – | – | – | –
2 | CSC(=S)Nc1ccc(N(C)C)cn1 [Example 3, methyl (5-dimethylamino-2-pyridyl)carbamodithioate] | – | 0 | 100 | 64.5 | 0 | –
3 | CSC(=S)Nc1ccc(C)cn1 [Example 2, methyl (5-methyl-2-pyridyl)carbamodithioate] | – | 30 | 100 | – | 30 | 7.75 ± 3.54
4 | CSC(=S)Nc1ccc(Cl)cn1 [Example 1, methyl (5-chloro-2-pyridyl)carbamodithioate] | – | 40 | 100 | – | 80 | 2 ± 0.917
